The source of these data is US9006269B2, “Azetidine derivatives” (Vernalis (R&D) Ltd., priority 2008, dated 2015).

For data set [1], the target named is rat FAAH protein (30-579) (Rattus norvegicus (Rat), UniProt P97612). In words: Rat FAAH inhibition assay (AAMCA fluorescence). Type of data set: biochemical. The settings on record: 3-hour pre-incubation with compound, 120 nM FAAH; read-out: FAAH Rat IC50 (nM) 180 minutes. The source says:
Rat FAAH Inhibition Assay
Active rat FAAH protein (30-579) was isolated as described in the literature. The coding sequence of amino acids 30-579 of rat FAAH were cloned into the expression vector pET28a to provide an N-terminal His-tag. Following expression, the His-tagged FAAH′ (30-579) was isolated using a method based on Patricelli et al., 1998; Biochemistry vol 37, p 15177 with a combination of chelating sepharose, heparin sepharose and size exclusion chromatography.
FAAH activity was determined by measuring the liberation of the highly fluorescent 7-amino, 4-methyl Coumarin (AMC) generated during hydrolysis of the substrate Arachidonoyl 7-Amino, 4-methyl Coumarin Amide (AAMCA) by FAAH. Inhibition of FAAH activity was determined as a percentage reduction of the fluorescence determined in the absence of compound.
The assay was carried out in black-walled, clear bottom, 384-well plates. 27.5 μl of FAAH protein (in FAAH assay buffer: 50 mM Hepes, 0.01% Triton X-100, 1 mM EDTA, 0.5 mg/ml BSA (fatty-acid-free), pH 8.2) was pre-incubated, at 120 nM, with increasing concentrations of compounds (2.5 μl in 100% DMSO) for 0, 1 or 3 hours at room temperature. 2.5 μl of DMSO was added for ‘total’ controls (100% FAAH activity) and 2.5 μl of URB-597, a known inhibitor of FAAH activity, (at a final, saturating, concentration of 10 μM) was used for ‘non-specific’ controls (0% FAAH activity). 20 μl of 7.5 μM AAMCA substrate (in FAAH assay buffer) was then added to all wells and incubated at room temperature for a further 1.5 hours. Fluorescence was determined at an excitation wavelength of 355 nm and an emission wavelength of 460 nm using a Flexstation plate reader (Molecular Devices, UK). Inhibition of FAAH activity, by the compounds, was determined as the percentage reduction in relative fluorescence units (RFU) compared to the ‘total’ controls (in the absence of compound) minus the ‘non-specific’ controls. IC50 values were determined, from 10-point dose response curves, in XL-Fit using a 4-Parameter Logistic Model (Sigmoidal Dose-Response Model).
The following Table 1 provides the 3-hour incubation results of testing the compounds of Examples 1-4 herein in the above rat FAAH inhibition assay.

In another data set the target is human FAAH 1 (Homo sapiens (Human), UniProt O00519). Briefly: Human FAAH 1 assay (AAMCA fluorescence). It counts as biochemical. Particulars: 1 hour pre-incubation with compound, 10 nM FAAH; read-out: FAAH Human IC50 (nM) 60 minutes (n = 2). The protocol: Part B Human FAAH 1 Assay
Human FAAH 1 activity was determined by measuring the liberation of the highly fluorescent 7-amino, 4-methyl Coumarin (AMC) generated during hydrolysis of the substrate arachidonoyl 7-amino, 4-methyl coumarin amide (AAMCA) by FAAH. Inhibition of human FAAH 1 activity was determined as a percentage reduction of the fluorescence determined in the absence of compound.
The assay was carried out in black-walled, clear bottom, 384-well plates. 27.5 μl of human FAAH 1 protein (in FAAH assay buffer: 50 mM Hepes, 0.01% Triton X-100, 1 mM EDTA, 0.5 mg/ml BSA (fatty-acid-free), pH 8.2) was pre-incubated, at 10 nM, with increasing concentrations of compounds (2.5 μl in 100% DMSO) for 1 hour at room temperature. 2.5 μl of DMSO was added for ‘total’ controls (100% FAAH activity) and 2.5 μl of URB-597, a known inhibitor of FAAH activity, (at a final, saturating, concentration of […]) was used for ‘non-specific’ controls (0 FAAH activity). 20 μl of 7.5 μM AAMCA substrate (in FAAH assay buffer) was then added to all wells and incubated at room temperature for a further 4 hours. Fluorescence was determined at an excitation wavelength of 355 nm and an emission wavelength of 460 nm using a Flexstation plate reader (Molecular Devices, UK). Inhibition of human FAAH 1 activity, by the compounds, was determined as the percentage reduction in relative fluorescence units (RFU) compared to the ‘total’ controls (in the absence of compound) minus the ‘non-specific’ controls. IC50 values were determined, from 10-point dose response curves, in XL-Fit using a 4-Parameter Logistic Model (Sigmoidal Dose-Response Model).

The nature of data set [2]: Plasma concentrations after oral administration in laboratory rats. It counts as in vivo, rat.
A further data set deals with FAAH (Homo sapiens (Human), UniProt O00519). In words: Intrinsic FAAH inhibitory potency (summary statement). Type of data set: biochemical. The settings on record: qualitative statement.
Data set [3] relates to carrageenan-induced thermal hypersensitivity. In words: Rat carrageenan induced thermal hyperalgesia model of inflammatory pain. It counts as in vivo. The procedure:
Part C Rat Carrageenan Induced Thermal Hyperalgesia Model of Inflammatory Pain.
Male Wistar rats were assessed for thermal pain sensitivity by applying a focused light beam onto the hind paws and recording the time to paw withdrawal, before and after local intraplantar administration of carrageenan. After 3 h, thermal pain sensitivity was reassessed in treated and untreated hind paws prior to dosing with test compound or vehicle. Indomethacin was administered as a positive control.
Male Sprague Dawley rats were tail-marked, and acclimatised to the plantar boxes on 3 separate occasions (6, 5 and 1 day prior to the test day) for at least 5 min on each occasion. On the pre-test day, the rats were habituated to the test room for at least 30 min prior to testing. The rats were put into the Hargreaves plantar boxes, allowed to settle down for approx 3-5 min, and challenged with the mobile radiant heat source. The latency to withdraw both left and right hindpaws from the heat source was determined on 2 occasions (3 min apart). The mean across the 2 challenges was recorded as the baseline for each animal. Rats 18 and 30 were not used in the study as they had very high baseline readings, and they were replaced by 61 and 63. Rats were then allocated to drug treatments ensuring the baseline latencies were balanced across groups.
On the test day, rats received intraplantar carrageenan lambda (100 uL of 1% in saline), or saline in right hindpaw 3 hours before testing. Four hours before testing, rats received VER-158416 (1, 3, or 10 mg/kg) or vehicle (5% EtOH: 95% (1% methylcellulose in water) p.o. Subsequently, 30 min before testing, rats received a second injection of either indomethacin 10 mg/kg or vehicle (50% 0.1M Na2CO3: 47.5% phosphate buffered saline (PBS): 2.5% 1M HCl) i.p. At the scheduled test time following drug treatment, the latency to withdraw the paw from the radiant heat source was reassessed by a single reading.
For example, the compound of Example 13 above was tested as follows:
Rats were dosed with intraplantar carrageenan at t=0; the compound of Example 13 (1, 3 & 10 mg/kg po) or vehicle (5% EtOH: 95% (1% methylcellulose in water) at t=2 h; indomethacin (10 mg/kg ip) or vehicle at t=2.5 h and thermal sensitivity was measured at t=3 h. Thus all rats received both oral and ip dosing.

Sequence of rat FAAH protein (30-579) (P97612 30-579): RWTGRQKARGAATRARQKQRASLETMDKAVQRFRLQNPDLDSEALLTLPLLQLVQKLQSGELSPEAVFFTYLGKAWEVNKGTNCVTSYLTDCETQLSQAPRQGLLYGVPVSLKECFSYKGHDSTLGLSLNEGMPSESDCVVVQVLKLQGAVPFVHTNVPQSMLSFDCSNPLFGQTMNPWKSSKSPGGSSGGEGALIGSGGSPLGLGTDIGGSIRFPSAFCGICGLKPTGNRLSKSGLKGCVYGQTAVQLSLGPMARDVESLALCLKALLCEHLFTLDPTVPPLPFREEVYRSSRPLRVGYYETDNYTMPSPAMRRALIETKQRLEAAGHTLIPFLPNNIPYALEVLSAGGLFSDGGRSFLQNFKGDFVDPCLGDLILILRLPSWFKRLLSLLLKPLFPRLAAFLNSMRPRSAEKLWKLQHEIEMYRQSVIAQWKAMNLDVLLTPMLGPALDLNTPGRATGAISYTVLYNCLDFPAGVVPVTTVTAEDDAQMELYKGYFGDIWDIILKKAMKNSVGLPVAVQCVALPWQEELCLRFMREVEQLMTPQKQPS
Sequence of FAAH (O00519 whole entry): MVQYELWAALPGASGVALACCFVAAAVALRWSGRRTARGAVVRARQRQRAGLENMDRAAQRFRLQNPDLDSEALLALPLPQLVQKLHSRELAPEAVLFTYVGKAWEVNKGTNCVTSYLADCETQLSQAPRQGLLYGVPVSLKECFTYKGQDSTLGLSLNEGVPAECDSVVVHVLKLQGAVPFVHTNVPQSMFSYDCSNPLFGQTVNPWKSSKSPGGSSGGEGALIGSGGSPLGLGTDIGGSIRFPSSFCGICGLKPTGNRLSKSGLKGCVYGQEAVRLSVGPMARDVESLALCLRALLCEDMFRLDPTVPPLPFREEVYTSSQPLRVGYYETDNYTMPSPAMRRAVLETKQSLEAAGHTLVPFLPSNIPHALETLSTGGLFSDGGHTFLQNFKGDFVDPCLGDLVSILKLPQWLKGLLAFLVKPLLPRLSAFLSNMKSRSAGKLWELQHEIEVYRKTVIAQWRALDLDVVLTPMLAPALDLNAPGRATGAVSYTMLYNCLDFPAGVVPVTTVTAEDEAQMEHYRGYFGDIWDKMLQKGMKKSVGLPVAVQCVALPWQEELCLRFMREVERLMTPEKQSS
Sequence of human FAAH 1 (O00519 whole entry): as above

For `O=C(Nc1ccccc1)N1CC(Oc2ccc(-c3ccccc3)cc2)C1` [Example 1, 3-(biphenyl-4-yloxy)-azetidine-1-carboxylic acid phenylamide], the IC50 in data set [1] was 135 nM. Take `O=C(Nc1cccc(F)c1)N1CC(Oc2ccc(-c3ccccc3)cc2)C1` [Example 2, 3-(Biphenyl-4-yloxy)-azetidine-1-carboxylic acid (3-fluoro-phenyl)-amide]: in data set [1], the IC50 was 279 nM. For `O=C(Nc1ccccc1F)N1CC(Oc2ccc(-c3ccccc3)cc2)C1` [Example 3, 3-(Biphenyl-4-yloxy)-azetidine-1-carboxylic acid (2-fluoro-phenyl)-amide], in data set [1], the 50% inhibitory concentration (IC50) stood at 77 nM. Take `COCCOc1cccc(-c2ccc(OC3CN(C(=O)Nc4ccncn4)C3)nc2)c1` [Example 5, 3-{5-[3-(2-Methoxy-ethoxy)-phenyl]-pyridin-2-yloxy}-azetidine-1-carboxylic acid pyrimidin-4-ylamide]: the IC50 at human FAAH 1 worked out at 9 nM.

In the case of `COCCOc1cccc(-c2ccc(OC3CN(C(=O)Nc4cnccn4)C3)nc2)c1` [Example 6, 3-{5-[3-(2-Methoxy-ethoxy)-phenyl]-pyridin-2-yloxy}-azetidine-1-carboxylic acid pyrazin-2-ylamide], the IC50 at human FAAH 1 turned out to be 73 nM. For `COCCOc1cccc(-c2ccc(OC3CN(C(=O)Nc4cccnn4)C3)nc2)c1` [Example 7, 3-{5-[3-(2-Methoxy-ethoxy)-phenyl]-pyridin-2-yloxy}-azetidine-1-carboxylic acid pyridazin-3-ylamide], the “plasma concentrations after oral administration” value (“plasma concentrations” below) in data set [2] was “high and prolonged”. The IC50 at human FAAH 1 is 19 nM. Moreover, the intrinsic-FAAH inhibitory potency entry at FAAH is “good”. Turning to `COCCOc1cccc(-c2ccc(OC3CN(C(=O)Nc4cccnc4)C3)nc2)c1` [Example 8, 3-{5-[3-(2-Methoxy-ethoxy)-phenyl]-pyridin-2-yloxy}-azetidine-1-carboxylic acid pyridin-3-ylamide], on human FAAH 1, the IC50 is 18 nM. Same read-out and setting: the figure for `O=C(Nc1cccnn1)N1CC(Oc2ccc(-c3cccc(OCCOCc4ccccc4)c3)cn2)C1` [Example 9, 3-{5-[3-(2-Benzyloxy-ethoxy)-phenyl]-pyridin-2-yloxy}-azetidine-1-carboxylic acid pyridazin-3-ylamide] is 3 nM. With `O=C(Nc1cccnn1)N1CC(Oc2ccc(-c3cccc(OCCO)c3)cn2)C1` [Example 10, 3-{5-[3-(2-Hydroxy-ethoxy)-phenyl]-pyridin-2-yloxy}-azetidine-1-carboxylic acid pyridazin-3-ylamide], the IC50 on human FAAH 1 was found to be 49 nM. As for `COCCOc1ccc(OC)c(-c2ccc(OC3CN(C(=O)Nc4cccnn4)C3)nc2)c1` [Example 11, 3-{5-[2-Methoxy-5-(2-methoxy-ethoxy)-phenyl]-pyridin-2-yloxy}-azetidine-1-carboxylic acid pyridazin-3-ylamide], the IC50 at human FAAH 1 turned out to be 19 nM. On the same count and under the same terms, the result for `COc1ccc(OC)c(-c2ccc(OC3CN(C(=O)Nc4cccnn4)C3)nc2)c1` [Example 12, 3-[5-(2,5-Dimethoxy-phenyl)-pyridin-2-yloxy]-azetidine-1-carboxylic acid pyridazin-3-ylamide] reads 12 nM. For `O=C(Nc1cccnn1)N1CC(Oc2ccc(-c3ccccc3)cn2)C1` [Example 13, 3-(5-Phenyl-pyridin-2-yloxy)-azetidine-1-carboxylic acid pyridazin-3-ylamide], the “plasma concentrations” value in data set [2] was “high and prolonged”. In addition, in data set [3] (1, 3, 10 mg/kg p.o., rat), the “effect on contralateral paw sensitivities to thermal pain” value is given as “no effect”, the “inhibition of carrageenan-induced thermal hypersensitivity” value is listed as “dose-related inhibition” and the “reduction of pain sensitivity to below normal levels” value was “did not reduce pain sensitivity to below normal levels”. The “statistical significance of inhibition vs vehicle/carrageenan group” value in data set [3] (at 3 and 10 mg/kg doses p.o., one way ANOVA, Newman-Keuls) is given as “reached statistical significance”. The IC50 at human FAAH 1 came to 38 nM. For the same compound, the intrinsic-FAAH inhibitory potency result on FAAH is “good”. In the case of `O=C(Nc1cccnn1)N1CC(Oc2ccc(-c3c(F)cccc3F)cn2)C1` [Example 14, 3-[5-(2,6-Difluoro-phenyl)-pyridin-2-yloxy]-azetidine-1-carboxylic acid pyridazin-3-ylamide], the IC50 on human FAAH 1 came to 14 nM. The same measure, in the same setting: the result for `COCCOc1ccc(Cl)c(-c2ccc(OC3CN(C(=O)Nc4cccnn4)C3)nc2)c1` [Example 15, 3-{5-[2-Chloro-5-(2-methoxy-ethoxy)-phenyl]-pyridin-2-yloxy}-azetidine-1-carboxylic acid pyridazin-3-yl-amide] reads 7 nM. Take `O=C(Nc1cnccn1)N1CC(Oc2ccc(-c3ccccc3F)cn2)C1` [Example 16, 3-[5-(2-Fluoro-phenyl]-pyridin-2-yloxy]-azetidine-1-carboxylic acid pyrazin-2-ylamide]: the IC50 at human FAAH 1 was determined as 42 nM.

`COc1ccccc1-c1ccc(OC2CN(C(=O)Nc3cccnn3)C2)nc1` [Example 17, 3-[5-(2-Methoxy-phenyl)-pyridin-2-yloxy]-azetidine-1-carboxylic acid pyridazin-3-ylamine]: the “plasma concentrations” value in data set [2] is “high and prolonged”. With `O=C(Nc1cccnn1)N1CC(Oc2ccc(-c3ccccc3F)cn2)C1` [Example 18, 3-[5-(2-Fluoro-phenyl)-pyridin-2-yloxy]-azetidine-1-carboxylic acid pyridazin-3-ylamide], in data set [2], the “plasma concentrations” value was “high and prolonged”. Moreover, the IC50 on human FAAH 1 was 16 nM. In addition, the intrinsic-FAAH inhibitory potency result on FAAH is recorded as “good”.

For the compound `COc1cccc(-c2ccc(OC3CN(C(=O)Nc4cccnn4)C3)nc2)c1F` [Example 19, 3-[5-(2-Fluoro-3-methoxy-phenyl)-pyridin-2-yloxy]-azetidine-1-carboxylic acid pyridazin-3-ylamide], the IC50 at human FAAH 1 is 26 nM.
